Columns and labels:
CpCBM92A = biological target: T1, CpCBM92A (Chitinophaga pinensis, UniProt A0A979GQH9); assay: isothermal titration calorimetry; settings: 50 mM sodium phosphate pH 6.5; three equivalent binding sites (N fixed to 3)
T1 construct: gene Cpin_2580; single CBM92 domain (three WExF motifs incl. W481, W523, W565), borders only in supplement; pET21a, C-terminal His6, E. coli BL21 (DE3)
Description: isothermal titration calorimetry on CpCBM92A

CpCBM92B = biological target: T2, CpCBM92B (Chitinophaga pinensis, UniProt A0A979GQH9); assay: X-ray crystallography of soaked crystal; format: binding; settings: sites in alpha, beta and gamma subdomains, saturating ligand soak
T2 construct: gene Cpin_2580; single CBM92 domain (incl. Arg955, Asp959 of beta subdomain), locus and borders only in supplement; His6-tagged, E. coli BL21 (DE3)
T2 sequence (A0A979GQH9 entry or part of it): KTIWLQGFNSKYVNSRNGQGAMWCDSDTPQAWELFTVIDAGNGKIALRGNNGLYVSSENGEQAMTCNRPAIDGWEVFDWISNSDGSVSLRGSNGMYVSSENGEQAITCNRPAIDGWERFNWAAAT

T1 sequence (A0A979GQH9 entry or part of it): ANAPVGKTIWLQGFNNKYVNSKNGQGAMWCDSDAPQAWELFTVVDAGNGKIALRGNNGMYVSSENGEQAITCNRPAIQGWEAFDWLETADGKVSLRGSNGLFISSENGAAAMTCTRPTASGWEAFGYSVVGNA

Row | Kd (CpCBM92A) | Compound | X-ray crystallography of soaked crystal (CpCBM92B; non-reducing end sugar in cleft) | X-ray crystallography of soaked crystal (CpCBM92B)
1 | 202 ± 40 µM | OC[C@H]1O[C@@H](OC[C@H]2OC(O)[C@H](O)[C@@H](O)[C@@H]2O)[C@H](O)[C@@H](O)[C@@H]1O (stereo partly drawn) [G2, gentiobiose] | Adding either G2 or S2 to the protein crystals led to binding | –
2 | 882 ± 107 µM | OC[C@H]1O[C@@H](O[C@H]2C(O)O[C@H](CO)[C@@H](O)[C@@H]2O)[C@H](O)[C@@H](O)[C@@H]1O (stereo partly drawn) [S2, sophorose] | – | Adding either G2 or S2 to the protein crystals led to binding
3 | 1840 ± 200 µM | OC[C@H]1OC(O)[C@H](O)[C@@H](O)[C@@H]1O (stereo partly drawn) [glucose] | – | Soaking experiments of the CpCBM92B protein crystals with glucose, gentiobiose
